Source: patent US20260364215A1, “Radiopharmaceutical Compositions Targeting Ephrin Type-A Receptor 2 and Uses Thereof” (PeptiDream Inc., priority 2022, published 2026)
Numbered stars: 1 amine (or outer) side, 2 acyl side, 3 side chain; on linkers, the order of the positions; unused ones are H or OH. Bridge positions count the residues as written; N and C are the ends. Square brackets hold non-standard residues; d marks the D form. Side chains are listed from the residue outwards. Peptide text beside a SMILES is read from it. * marks the point of attachment. DOTA(Lu) = O=C1CN2CCN3CCN(CC(=O)*)CCN(CC2)CC(=O)[O][Lu]([O]1)[O]C(=O)C3; NH(1-deoxy-D-glucityl) = OC[C@@H](O)[C@@H](O)[C@H](O)[C@@H](O)CN*; DOTA = O=C(O)CN1CCN(CC(=O)O)CCN(CC(=O)*)CCN(CC(=O)O)CC1; Trp(1-Me,7-Cl) = Cn1cc(C[C@H](N)C(=O)O)c2cccc(Cl)c21; dPhe(3-CONH2) = NC(=O)c1cccc(C[C@@H](N)C(=O)O)c1; Piperazinyl(4-CH2COOH) = O=C(O)CN1CCN(*)CC1; Trp(1-Me) = Cn1cc(C[C@H](N)C(=O)O)c2ccccc21; NMemTyr = CN[C@@H](Cc1cccc(O)c1)C(=O)O; NMe3Pal = CN[C@@H](Cc1cccnc1)C(=O)O; NMeF = CN[C@@H](Cc1ccccc1)C(=O)O; hCit = NC(=O)NCCCC[C@H](N)C(=O)O; Gly(cBu) = N[C@H](C(=O)O)C1CCC1; NMeE = CN[C@@H](CCC(=O)O)C(=O)O; Aad = N[C@@H](CCCC(=O)O)C(=O)O; Cit = NC(=O)NCCC[C@H](N)C(=O)O; NMeN = CN[C@@H](CC(N)=O)C(=O)O; CO = O=C([*:1])[*:2]

Biological target: T1, Recombinant Human EphA2 Fc Protein (Homo sapiens, UniProt P29317)
T1 construct: purchased Elabscience
Test: Interaction analysis (kinetics, KD) of peptides and conjugates against EphA2 by SPR, Biacore T200, single-cycle kinetics (Examples B15 and B22)
Assay type: binding
Conditions: not given
Experimental: Example B15. Interaction Analysis by SPR was Performed Using Biacore (Cytiva)
SPR assay was performed using Biacore T200 (Cytiva).
The HBS-P+ buffer (10 mM HEPES (pH7.4), 150 mM NaCl, 0.05% (v/v) Surfactant P20) containing 1% DMSO was used as running buffer. Recombinant Human EphA2 Fc Protein (Fc tag, Elabscience) was captured by Human Antibody Capture kit (Cytiva). Peptide samples in DMSO were diluted with running buffer, and prepared five serial dilutions. Using these serial dilutions, kinetics of peptides against EphA2 was measured at a flow rate of […] at 25 °C. The method adopted for sample measurement was a single-cycle kinetics method. The analysis was conducted using the evaluation software 3.0 provided with Biacore T200. Kinetics fitting was done on the difference data obtained by subtracting the baseline data from sample measurement data. KD values were calculated based on the association rate constant (ka) and dissociation rate constant (kd).
Example B22: Interaction Analysis of Conjugates by SPR was Performed Using Biacore (Cytiva)
SPR assay was performed using Biacore T200 (Cytiva) according to Example B15.

T1 sequence (P29317 24-534 limits assumed): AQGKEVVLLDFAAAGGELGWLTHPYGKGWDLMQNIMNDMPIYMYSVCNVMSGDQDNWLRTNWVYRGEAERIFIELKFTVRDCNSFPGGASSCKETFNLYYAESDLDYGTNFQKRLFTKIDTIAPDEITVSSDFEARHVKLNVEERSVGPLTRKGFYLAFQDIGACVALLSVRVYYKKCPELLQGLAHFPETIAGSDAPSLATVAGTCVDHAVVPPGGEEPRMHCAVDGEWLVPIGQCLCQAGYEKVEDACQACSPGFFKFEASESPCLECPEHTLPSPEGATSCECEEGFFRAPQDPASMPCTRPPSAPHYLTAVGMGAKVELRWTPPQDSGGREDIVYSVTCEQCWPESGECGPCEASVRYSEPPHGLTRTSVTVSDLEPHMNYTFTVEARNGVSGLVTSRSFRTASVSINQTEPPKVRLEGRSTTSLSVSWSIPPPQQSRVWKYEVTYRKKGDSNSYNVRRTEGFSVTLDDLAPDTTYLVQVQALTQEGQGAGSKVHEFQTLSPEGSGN

| Compound | Kd |
| --- | --- |
| C[C@H]1NC(=O)CSC[C@@H](C(=O)N[C@H](CCCCNC(=O)CN2CCN3CCN4CCN(CC2)CC(=O)[O][Lu]([O]C(=O)C3)[O]C(=O)C4)C(N)=O)NC(=O)[C@H](CCCC(N)=O)NC(=O)[C@H]([C@@H](C)O)NC(=O)[C@H](Cc2cn(C)c3ccccc23)NC(=O)[C@H](CCC(=O)NC[C@H](O)[C@@H](O)[C@H](O)[C@H](O)CO)NC(=O)[C@H](Cc2cn(C)c3ccccc23)NC(=O)[C@H](Cc2cccnc2)N(C)C(=O)[C@H](CCCC(N)=O)NC(=O)[C@H](C2CCC2)NC(=O)[C@H](CC(N)=O)NC(=O)[C@H](Cc2ccccc2)N(C)C1=O [PDC_EphA2-00013704-C302] ({CH2CO}-[dA][NMeF]N[Gly(cBu)][Aad](NH2)[NMe3Pal][Trp(1-Me)]E(NH(1-deoxy-D-glucityl))[Trp(1-Me)]T[Aad](NH2)C[dK](DOTA(Lu))-NH2; thioether N-12) | < 1 nM |
| CN1C(=O)[C@H](CCCC(N)=O)NC(=O)[C@H](C2CCC2)NC(=O)[C@H](CC(N)=O)NC(=O)[C@H](Cc2cccnc2)N(C)C(=O)[C@@H](Cc2cccc(C(N)=O)c2)NC(=O)CSC[C@@H](C(=O)N[C@@H](CCCCNC(=O)CN2CCN3CCN4CCN(CC2)CC(=O)[O][Lu]([O]C(=O)C3)[O]C(=O)C4)C(N)=O)NC(=O)[C@H](Cc2cn(C)c3ccccc23)NC(=O)[C@H](CCCCNC(=O)N2CCN(CC(=O)O)CC2)NC(=O)[C@H](Cc2cn(C)c3c(Cl)cccc23)NC(=O)[C@@H]1CCC(=O)O [PDC_EphA2-00026606-C301] ({CH2CO}-[dPhe(3-CONH2)][NMe3Pal]N[Gly(cBu)][Aad](NH2)[NMeE][Trp(1-Me,7-Cl)]K([CO-Piperazinyl(4-CH2COOH)])[Trp(1-Me)]CK(DOTA(Lu))-NH2; thioether N-10) | < 1 nM |
| CC(C)C[C@@H]1NC(=O)[C@H](CC(N)=O)NC(=O)[C@H](Cc2cccnc2)N(C)C(=O)[C@@H](Cc2cccc(C(N)=O)c2)NC(=O)CSC[C@@H](C(=O)N[C@H](CCCCNC(=O)CN2CCN3CCN4CCN(CC2)CC(=O)[O][Lu]([O]C(=O)C3)[O]C(=O)C4)C(N)=O)NC(=O)[C@H](CC(N)=O)NC(=O)[C@H]([C@@H](C)O)NC(=O)[C@H](Cc2cn(C)c3ccccc23)NC(=O)[C@H](CCCNC(N)=O)NC(=O)[C@H](Cc2cn(C)c3c(Cl)cccc23)NC(=O)[C@H](CC(N)=O)N(C)C(=O)[C@H](CC(N)=O)NC1=O [PDC_EphA2-00026426-C302] ({CH2CO}-[dPhe(3-CONH2)][NMe3Pal]NLN[NMeN][Trp(1-Me,7-Cl)][Cit][Trp(1-Me)]TNC[dK](DOTA(Lu))-NH2; thioether N-12) | < 1 nM |
| CN1C(=O)[C@H](CCCC(N)=O)NC(=O)[C@H](C2CCC2)NC(=O)[C@H](CC(N)=O)NC(=O)[C@H](Cc2cccc(O)c2)N(C)C(=O)[C@@H](Cc2cccc(C(N)=O)c2)NC(=O)CSC[C@@H](C(=O)N[C@@H](CCCCNC(=O)CN2CCN3CCN4CCN(CC2)CC(=O)[O][Lu]([O]C(=O)C3)[O]C(=O)C4)C(N)=O)NC(=O)[C@H](Cc2cn(C)c3ccccc23)NC(=O)[C@H](CCCCNC(=O)N2CCN(CC(=O)O)CC2)NC(=O)[C@H](Cc2cn(C)c3c(Cl)cccc23)NC(=O)[C@@H]1CCC(=O)O [PDC_EphA2-00026608-C301] ({CH2CO}-[dPhe(3-CONH2)][NMemTyr]N[Gly(cBu)][Aad](NH2)[NMeE][Trp(1-Me,7-Cl)]K([CO-Piperazinyl(4-CH2COOH)])[Trp(1-Me)]CK(DOTA(Lu))-NH2; thioether N-10) | < 1 nM |

Same assay, conditions: conjugates, Biacore T200 according to Example B15, Table B16; read-out: SPR Kd

| Compound | Kd |
| --- | --- |
| C[C@H]1NC(=O)CSC[C@@H](C(=O)N[C@H](CCC(=O)O)C(=O)O)NC(=O)[C@H](CCCC(N)=O)NC(=O)[C@H]([C@@H](C)O)NC(=O)[C@H](Cc2cn(C)c3ccccc23)NC(=O)[C@H](CCCCNC(=O)N2CCN(CC(=O)O)CC2)NC(=O)[C@H](Cc2cn(C)c3c(Cl)cccc23)NC(=O)[C@H](CCC(=O)O)N(C)C(=O)[C@H](CCCCNC(=O)CN2CCN(CC(=O)O)CCN(CC(=O)O)CCN(CC(=O)O)CC2)NC(=O)[C@H](C2CCC2)NC(=O)[C@H](CC(N)=O)NC(=O)[C@H](Cc2cccnc2)N(C)C1=O.[Lu+3] [PDC_EphA2-00027103] ({CH2CO}-[dA][NMe3Pal]N[Gly(cBu)]K(DOTA)[NMeE][Trp(1-Me,7-Cl)]K([CO-Piperazinyl(4-CH2COOH)])[Trp(1-Me)]T[Aad](NH2)C[dE]-OH; thioether N-12) | < 1 nM |
| C[C@@H](O)[C@@H]1NC(=O)[C@H](Cc2cn(C)c3ccccc23)NC(=O)[C@H](CCCCNC(=O)N2CCN(CC(=O)O)CC2)NC(=O)[C@H](Cc2cn(C)c3c(Cl)cccc23)NC(=O)[C@H](CCC(=O)O)N(C)C(=O)[C@H](CCCCNC(=O)CN2CCN(CC(=O)O)CCN(CC(=O)O)CCN(CC(=O)O)CC2)NC(=O)[C@H](C2CCC2)NC(=O)[C@H](CC(N)=O)NC(=O)[C@H](Cc2cccnc2)N(C)C(=O)[C@@H](Cc2cccc(C(N)=O)c2)NC(=O)CSC[C@@H](C(=O)N[C@H](CCC(=O)O)C(N)=O)NC(=O)[C@H](CCCC(N)=O)NC1=O.[Lu+3] [PDC_EphA2-00027106] ({CH2CO}-[dPhe(3-CONH2)][NMe3Pal]N[Gly(cBu)]K(DOTA)[NMeE][Trp(1-Me,7-Cl)]K([CO-Piperazinyl(4-CH2COOH)])[Trp(1-Me)]T[Aad](NH2)C[dE]-NH2; thioether N-12) | < 1 nM |
| C[C@H]1NC(=O)CSC[C@@H](C(=O)N[C@H](CCC(=O)O)C(N)=O)NC(=O)[C@H](CCCC(N)=O)NC(=O)[C@H]([C@@H](C)O)NC(=O)[C@H](Cc2cn(C)c3ccccc23)NC(=O)[C@H](CCCCNC(=O)N2CCN(CC(=O)O)CC2)NC(=O)[C@H](Cc2cn(C)c3c(Cl)cccc23)NC(=O)[C@H](CCC(=O)O)N(C)C(=O)[C@H](CCCCNC(=O)[C@@H](CCC(=O)O)NC(=O)CN2CCN(CC(=O)O)CCN(CC(=O)O)CCN(CC(=O)O)CC2)NC(=O)[C@H](C2CCC2)NC(=O)[C@H](CC(N)=O)NC(=O)[C@H](Cc2cccnc2)N(C)C1=O.[Lu+3] [PDC_EphA2-00027126] ({CH2CO}-[dA][NMe3Pal]N[Gly(cBu)]K([dE-DOTA])[NMeE][Trp(1-Me,7-Cl)]K([CO-Piperazinyl(4-CH2COOH)])[Trp(1-Me)]T[Aad](NH2)C[dE]-NH2; thioether N-12) | < 1 nM |
| CC(C)C[C@@H]1NC(=O)[C@H](CC(N)=O)NC(=O)[C@H](Cc2cccnc2)N(C)C(=O)[C@@H](Cc2cccc(C(N)=O)c2)NC(=O)CSC[C@@H](C(=O)N[C@H](CCCCNC(=O)CN2CCN(CC(=O)O)CCN(CC(=O)O)CCN(CC(=O)O)CC2)C(N)=O)NC(=O)[C@H](CC(N)=O)NC(=O)[C@H]([C@@H](C)O)NC(=O)[C@H](Cc2cn(C)c3ccccc23)NC(=O)[C@H](CCC(=O)NC[C@H](O)[C@@H](O)[C@H](O)[C@H](O)CO)NC(=O)[C@H](Cc2cn(C)c3c(Cl)cccc23)NC(=O)[C@H](Cc2cccnc2)N(C)C(=O)[C@H](CC(N)=O)NC1=O.[Lu+3] [PDC_EphA2-00026424-C302] ({CH2CO}-[dPhe(3-CONH2)][NMe3Pal]NLN[NMe3Pal][Trp(1-Me,7-Cl)]E(NH(1-deoxy-D-glucityl))[Trp(1-Me)]TNC[dK](DOTA)-NH2; thioether N-12) | < 1 nM |
| CC(C)C[C@@H]1NC(=O)[C@H](CC(N)=O)NC(=O)[C@H](Cc2cccnc2)N(C)C(=O)[C@@H](Cc2cccc(C(N)=O)c2)NC(=O)CSC[C@@H](C(N)=O)NC(=O)[C@H](CCCCNC(=O)CN2CCN(CC(=O)O)CCN(CC(=O)O)CCN(CC(=O)O)CC2)NC(=O)[C@H]([C@@H](C)O)NC(=O)[C@H](Cc2cn(C)c3ccccc23)NC(=O)[C@H](CCC(=O)NC[C@H](O)[C@@H](O)[C@H](O)[C@H](O)CO)NC(=O)[C@H](Cc2cn(C)c3c(Cl)cccc23)NC(=O)[C@H](CC(N)=O)N(C)C(=O)[C@H](CCCC(N)=O)NC1=O.[Lu+3] [PDC_EphA2-00026716] ({CH2CO}-[dPhe(3-CONH2)][NMe3Pal]NL[Aad](NH2)[NMeN][Trp(1-Me,7-Cl)]E(NH(1-deoxy-D-glucityl))[Trp(1-Me)]TK(DOTA)C-NH2; thioether N-12) | < 1 nM |
| C[C@H]1NC(=O)CSC[C@@H](C(=O)N[C@H](CCCCNC(=O)CN2CCN(CC(=O)O)CCN(CC(=O)O)CCN(CC(=O)O)CC2)C(N)=O)NC(=O)[C@H](CCCC(N)=O)NC(=O)[C@H]([C@@H](C)O)NC(=O)[C@H](Cc2cn(C)c3ccccc23)NC(=O)[C@H](CCC(=O)NC[C@H](O)[C@@H](O)[C@H](O)[C@H](O)CO)NC(=O)[C@H](Cc2cn(C)c3ccccc23)NC(=O)[C@H](CC(N)=O)N(C)C(=O)[C@H](CCCC(N)=O)NC(=O)[C@H](C2CCC2)NC(=O)[C@H](CC(N)=O)NC(=O)[C@H](Cc2ccccc2)N(C)C1=O.[Lu+3] [PDC_EphA2-00013703-C302] ({CH2CO}-[dA][NMeF]N[Gly(cBu)][Aad](NH2)[NMeN][Trp(1-Me)]E(NH(1-deoxy-D-glucityl))[Trp(1-Me)]T[Aad](NH2)C[dK](DOTA)-NH2; thioether N-12) | < 1 nM |

Same assay, conditions: peptides, Biacore T200, 25 °C, Table B12; read-out: SPR Kd

| Kd | Compound |
| --- | --- |
| < 1 nM | C[C@@H](O)[C@@H]1NC(=O)[C@H](Cc2cn(C)c3ccccc23)NC(=O)[C@H](CCCCNC(N)=O)NC(=O)[C@H](Cc2cn(C)c3c(Cl)cccc23)NC(=O)[C@H](CC(N)=O)N(C)C(=O)[C@H](CCCC(N)=O)NC(=O)[C@H](C2CCC2)NC(=O)[C@H](CC(N)=O)NC(=O)[C@H](Cc2ccccc2)N(C)C(=O)[C@@H](Cc2cccc(C(N)=O)c2)NC(=O)CSC[C@@H](C(N)=O)NC(=O)[C@H](CCCC(N)=O)NC1=O [PDC_EphA2-00019426] ({CH2CO}-[dPhe(3-CONH2)][NMeF]N[Gly(cBu)][Aad](NH2)[NMeN][Trp(1-Me,7-Cl)][hCit][Trp(1-Me)]T[Aad](NH2)C-NH2; thioether N-12) |
